In assay [1] the test system is HOB cells. Briefly: Cell adhesion assay (cell attachment and cell spreading), HOB cells. It counts as cell-based, human. The method, then: To evaluate cell attachment and cell spreading exponentially growing cells were detached from substratum by trypsinisation (0.25% (v/v) trypsin in 5 mM EDTA), collected into medium containing a ˜7% (V/V) final concentration of FCS, washed twice with medium without serum and then plated (2×10^4cells/well) onto FN-coated 96-well plates with and without further immobilisation of tTG. After a maximum of 20-minute incubation (to minimise the effect of any endogenous secreted proteins) at 37° C. in a 5% CO2 atmosphere, cells were fixed in 3.7% (w/v) paraformaldehyde in PBS pH 7.4, permeabilised in 0.1% (v/v) Triton X-100 and stained with May Grunwald and Giemsa stain (Jones et al 1997, Verderio et al. 2000). In some cases cells were pre-treated for 15 hours with 1 mM cycloheximide before plating to rule out any effects of endogenous secreted adhesion molecules. Digital images of three non-overlapping fields covering the central portion of each well was captured using a video digital camera (Olympus DP10) and examined using the Image Analysis programme Scion Image (National Institute of Health, USA). A total of at least nine images of separate fields per sample were examined for a total of at least 900 cells in the FN control. The number of cell particles in each field was measured by thresholding and particle analysis setting a minimum particle size of 50 pixels. Spread cells were analysed and quantified by “density slicing” and particle analysis.
Adhesion of cells to FN was decreased by pre-incubation with RGD synthetic peptide (50 μg/ml, ˜75 ∝M, 100 μg/ml ˜150 μM, or 200 μg/ml ˜300 μM) or function blocking anti-integrin antibodies 40 μg/ml anti-β1 integrin (JB1A), 30 μg/ml anti-α5 integrin (P1D6). Detached cells (as described above) were pre-incubated in suspension (2×10^5cells/ml) in serum-free medium containing either RGD peptide or anti-integrins antibodies at 37° C. for 10 minutes in 5% CO2 atmosphere, and then seeded in the presence of the peptides.

Assay [2] relates to Swiss 3T3 fibroblasts. In words: Cell adhesion assay (cell attachment and cell spreading), Swiss 3T3 fibroblasts. It counts as cell-based, mouse. The note with it: 100 μg/ml RGD peptide. As for the experimental part: To evaluate cell attachment and cell spreading exponentially growing cells were detached from substratum by trypsinisation (0.25% (v/v) trypsin in 5 mM EDTA), collected into medium containing a ˜7% (V/V) final concentration of FCS, washed twice with medium without serum and then plated (2×10^4cells/well) onto FN-coated 96-well plates with and without further immobilisation of tTG. After a maximum of 20-minute incubation (to minimise the effect of any endogenous secreted proteins) at 37° C. in a 5% CO2 atmosphere, cells were fixed in 3.7% (w/v) paraformaldehyde in PBS pH 7.4, permeabilised in 0.1% (v/v) Triton X-100 and stained with May Grunwald and Giemsa stain (Jones et al 1997, Verderio et al. 2000). In some cases cells were pre-treated for 15 hours with 1 mM cycloheximide before plating to rule out any effects of endogenous secreted adhesion molecules. Digital images of three non-overlapping fields covering the central portion of each well was captured using a video digital camera (Olympus DP10) and examined using the Image Analysis programme Scion Image (National Institute of Health, USA). […] The number of cell particles in each field was measured by thresholding and particle analysis setting a minimum particle size of 50 pixels. Spread cells were analysed and quantified by “density slicing” and particle analysis. […]

Assay [3] has as its system HOB cells. It counts as cell-based, human. The note with it: FN+RGD.
The test system of assay [4] is FAK. In words: FAK tyrosine phosphorylation (western blot, phospho(Tyr397)-FAK). The class given is cell-based, human. The note with it: HOB; RGD peptide (100 μg/ml). As for the experimental part:
A cell suspension of 2×10^5 cells/ml was seeded in 9.6 cm^2-wells (6×10^5 cells/well) pre-coated with FN, tTG-FN or heat-inactivated 3% BSA (w/v) in PBS pH 7.4. After 30-minute incubation at 37° C. in a 5% CO2 atmosphere, the supernatant medium was removed, and non-adhered cells collected by spinning at 270 g for 5 minutes and then lysed in reducing Laemmli sample buffer at 95° C. for 5 minutes. The layer of adhered cells was scraped and similarly lysed (200 μl/well). The lysates of adhered and non-adherent cells were pooled together, fractionated (¼ aliquot) on 8% SDS-PAGE and then western blotted. Blots were incubated with a polyclonal rabbit anti-human phospho(Tyr 397)-FAK (1/2000), for ˜15 hours at +4° C. followed by anti-rabbit IgG peroxidase-conjugate (1/2000) for 2 hours at 21° C. Bands were detected by chemi-luminescence (Amersham), following manufacturer instructions. For re-probing with a control antibody, blots were treated with stripping buffer [50 mM Tris.HCl pH 6.7, 100 mM βME, 2% SDS (w/v)] for 30 minutes at 50° C. and then incubated with a monoclonal anti-tubulin antibody (1/2000), followed by peroxidase-conjugate anti-mouse IgGs/(1/1000).

In assay [5] the test system is tTG-null mouse dermal fibroblasts (MDF-TG−/−). Briefly: Anoikis quantification by TUNEL (flow cytometry and in situ microscopy). The note with it: RGD peptide, ~15-hour, flow cytometry. It counts as cell-based. As for the experimental part: (§1) For fluorochrome labelling of DNA strand breaks, 6×10^5 cells were seeded in duplicate in 9.6 cm^2-wells pre-coated with FN or tTG-FN in the presence or absence of RGD peptide. After 15-hour incubation at 37° C. in a 5% CO2 atmosphere, all cells (adhered and non-adhered) were collected, washed twice in PBS pH 7.4, resuspended at the final concentration of 1.2×10^7 cells/ml and fixed in suspension by addition of one volume of 4% (w/v) PFM in PBS, pH 7.4 for 1 hour at room temperature. […] The fluorescence intensity measured by flow cytometry using a Beckman Coulter EPICS XL. Cells were collected and data stored using the SYSTEM II software and analysed using the WinMDI2.8 software. DNA fragmentation was also detected by in situ analysis of nuclei following TUNEL using a confocal fluorescent microscope (Leica). […] For quantification, the Leica LCS software was used to acquire three random images per well for a total of 9 images per experimental sample using a fixed protocol (with constant PMT and section-depth setting). Data are expressed as mean number of apoptotic cells per well. […] Data are expressed as absorbance values at 492 nm after subtraction of values at […] given by the unmetabolised salt.

For assay [6] the test system is unchanged. In words: Cell viability (XTT) assay. It counts as cell-based. The settings on record: RGD peptide ~15 hours. The method, then: as §1
Assay [7] relates to BRIN-BD11 (clonal β-cells). In words: Cell attachment and spreading of BRIN-BD11 cells. It counts as cell-based, rat. The settings on record: excess RGD peptide. As for the experimental part: A novel insulin-secreting cell line (BRIN-BD11), which was established after electrofusion of RINm5F cells with New England Deaconess Hospital rat pancreatic islet cells, was grown confluent in RPMI 1640 media, supplemented with 10% FCS, 200 u/ml Penicillin, 200 ug/ml Streptomycin and L-Glutamine at 2 mM. The wells of microtitre plates were coated with FN (5 μg/ml) overnight at 4° C. The assigned wells were washed once with 50 mM Tris-HCl, pH 7.4 and then incubated with 20 μg/ml tTG solution (dissolved in PBS containing 2 mM EDTA pH 7.4) for 1 hour at 37° C. Meanwhile, exponentially growing cells were trypsinised and collected into medium containing approximately 7% (v/v) foetal calf serum. After a five-minute centrifugation at 300×g the cell pellet was washed twice in serum free medium to remove the traces of serum proteins. […] The cell attachment and spreading were quantified using the Scion image analysis programme, which is developed at the National Institute of Health (Washington DC, USA). The number of cells per image was assessed through threshold and particle analysis settings with a minimum particle size of 50 pixels. […] These were quantified by density slicing and particle analysis settings. […]

Experimental findings from patent US20070077607A1, “Novel screening method” (priority 2003, published 2007) are described below.

Where no end group is shown, it is not given here.

GRGDTP [RGD peptide, GRGDTP]: in assay [1] (100 μg/ml RGD peptide), the “cell spreading on FN” value was 10-50 % of control value. For the same substance, the “cell attachment on FN” value in assay [1] (50 and 100 μg/ml RGD peptides) is recorded as 30-50 % of control values on FN. In assay [1] (RGD peptide (100 μg/ml)), the “inhibition of cell attachment on the 70 kd fragment” value is about 40% and the “inhibition of cell spreading on the 70 kd fragment” value is listed as about 40%. Also, in assay [2], the “cell attachment on FN” value is on record as 30-40 % of controls and the “cell spreading on FN” value is 30-40 % of controls. Further, in assay [3], the “actin stress fibre organisation on FN” value is recorded as “actin was not organised into stress fibres”. Also, in assay [4], the “tyrosine phosphorylation of FAK on FN” value was ~25 % of level in control cells on. Further, the “apoptotic cells among total fibroblasts grown on FN” value in assay [5] was about 24%. Also, the “decrease of cell viability on FN versus control RAD peptide” value in assay [6] is “around 20%”. Besides, the “cell attachment and spreading on FN” value in assay [7] is on record as “decreased”.
